PubChem BioAssay (NCI)
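Tested at 5 concentrations; 48 h exposure; 96-well plates; endpoints linearly interpolated, else capped at highest concentration. The concentration for full growth arrest is given as TGI.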

Assays:
Experiment in all cases: NCI tumour cell line growth inhibition, 48 h
[1] = test system: SN12C renal
[2] = test system: SNB-19 CNS
[3] = test system: ACHN renal
[4] = test system: EKVX NSCLC
[5] = test system: HT29 colon
[6] = test system: HOP-92 NSCLC
[7] = test system: NCI-H522 lung
[8] = test system: NCI-H23 lung
[9] = test system: SK-OV-3 ovarian
[10] = test system: IGROV1 ovarian
[11] = test system: OVCAR-5 ovarian
[12] = test system: MALME-3M melanoma
[13] = test system: CCRF-CEM leukemia
[14] = test system: NCI-H226 lung
[15] = test system: SK-MEL-28 melanoma
[16] = test system: HL-60(TB) leukemia
[17] = test system: A498 renal
[18] = test system: 786-0 renal
[19] = test system: RPMI-8226 leukemia
[20] = test system: TK-10 renal
[21] = test system: A549 NSCLC
[22] = test system: MOLT-4 leukemia
[23] = test system: K-562 leukemia
[24] = test system: SF-268 CNS
[25] = test system: NCI-H460 lung
[26] = test system: MDA-MB-435
[27] = test system: T-47D breast
[28] = test system: UACC-257 melanoma
[29] = test system: SK-MEL-5 melanoma
[30] = test system: MDA-N
[31] = test system: OVCAR-4 ovarian
[32] = test system: COLO 205 colon
[33] = test system: U251 CNS
[34] = test system: RXF 393 renal
[35] = test system: MDA-MB-231 breast
[36] = test system: NCI/ADR-RES ovarian
[37] = test system: KM12 colon
[38] = test system: BT-549 breast
[39] = test system: HOP-62 NSCLC
[40] = test system: OVCAR-3 ovarian
[41] = test system: SF-539 CNS
[42] = test system: MCF7 breast
[43] = test system: HS 578T breast
[44] = test system: DU-145 prostate
[45] = test system: SK-MEL-2 melanoma
[46] = test system: LOX IMVI melanoma
[47] = test system: SF-295 CNS
[48] = test system: HCT-116 colon
[49] = test system: UO-31 renal
[50] = test system: HCC-2998 colon
[51] = test system: PC-3 prostate
[52] = test system: M14 melanoma
[53] = test system: HCT-15 colon
[54] = test system: OVCAR-8 ovarian
[55] = test system: CAKI-1 renal
[56] = test system: SW-620 colon
[57] = test system: SNB-75 CNS
[58] = test system: UACC-62 melanoma

Q: For OCCSCc1cc2c(O)c(c1)Cc1cc(CSCCO)cc(c1O)Cc1cc(CSCCO)cc(c1O)Cc1cc(CSCCO)cc(c1O)C2, which TGI [1] is on record?
A: 22.7 µM

Q: What about the TGI [2] of the same compound?
A: 15.9 µM

Q: What about the TGI [3] of the same compound?
A: 9.61 µM

Q: What about the TGI [4] of the same compound?
A: 46.1 µM

Q: And the TGI [5]?
A: 7.4 µM

Q: And the TGI [6]?
A: 15.2 µM

Q: And the TGI [7]?
A: 14.7 µM

Q: And the TGI [8]?
A: 16.7 µM

Q: What about the TGI [9] of the same compound?
A: 31.7 µM

Q: And the TGI [10]?
A: 10.9 µM

Q: And the TGI [11]?
A: 18.9 µM

Q: What about the TGI [12] of the same compound?
A: 5.88 µM

Q: What about the TGI [13] of the same compound?
A: 68.2 µM

Q: What about the TGI [14] of the same compound?
A: 37.5 µM

Q: What about the TGI [15] of the same compound?
A: 13.1 µM

Q: And the TGI [16]?
A: > 100 µM

Q: And the TGI [17]?
A: 17.3 µM

Q: What about the TGI [18] of the same compound?
A: 12.5 µM

Q: What about the TGI [19] of the same compound?
A: 30.6 µM

Q: And the TGI [20]?
A: 37 µM

Q: And the TGI [21]?
A: 20.4 µM

Q: And the TGI [22]?
A: > 100 µM

Q: What about the TGI [23] of the same compound?
A: > 100 µM

Q: And the TGI [24]?
A: 7.78 µM

Q: What about the TGI [25] of the same compound?
A: 7.84 µM

Q: What about the TGI [26] of the same compound?
A: 9.04 µM

Q: What about the TGI [27] of the same compound?
A: 26.3 µM

Q: What about the TGI [28] of the same compound?
A: 27.7 µM

Q: What about the TGI [29] of the same compound?
A: 4.4 µM

Q: What about the TGI [30] of the same compound?
A: 11.8 µM

Q: And the TGI [31]?
A: 13.9 µM

Q: What about the TGI [32] of the same compound?
A: 7.31 µM

Q: What about the TGI [33] of the same compound?
A: 16.8 µM

Q: What about the TGI [34] of the same compound?
A: 18.3 µM

Q: What about the TGI [35] of the same compound?
A: 7.21 µM

Q: And the TGI [36]?
A: 64.2 µM

Q: What about the TGI [37] of the same compound?
A: 17.1 µM

Q: And the TGI [38]?
A: 11.7 µM

Q: And the TGI [39]?
A: 15.6 µM

Q: And the TGI [40]?
A: 4.27 µM

Q: And the TGI [41]?
A: 12.6 µM

Q: And the TGI [42]?
A: 14.5 µM

Q: What about the TGI [43] of the same compound?
A: 42.8 µM

Q: And the TGI [44]?
A: 23.5 µM

Q: And the TGI [45]?
A: 5.25 µM

Q: What about the TGI [46] of the same compound?
A: 11.9 µM

Q: What about the TGI [47] of the same compound?
A: 16.7 µM

Q: And the TGI [48]?
A: 13 µM

Q: What about the TGI [49] of the same compound?
A: 28.3 µM

Q: And the TGI [50]?
A: 23.1 µM

Q: And the TGI [51]?
A: 8.88 µM

Q: And the TGI [52]?
A: 12.7 µM

Q: And the TGI [53]?
A: 33 µM

Q: And the TGI [54]?
A: 17.6 µM

Q: And the TGI [55]?
A: 9.63 µM

Q: What about the TGI [56] of the same compound?
A: 15.1 µM

Q: What does the source list for O=C(c1cc(Br)ccc1O)c1cc(Br)ccc1O?
A: TGI [1]: 32.6 µM; TGI [2]: 32.3 µM; TGI [3]: 29.9 µM; TGI [4]: 30.3 µM; TGI [5]: 31.7 µM; TGI [6]: 27.1 µM; TGI [7]: 33 µM; TGI [8]: 35.4 µM; TGI [9]: 35.8 µM; TGI [10]: 27.8 µM; TGI [11]: 33.3 µM; TGI [57]: 29.9 µM; TGI [12]: 31.6 µM; TGI [13]: 44.4 µM; TGI [14]: 42 µM; TGI [15]: 31.1 µM; TGI [16]: 44.1 µM; TGI [17]: 31.4 µM; TGI [18]: 30.6 µM; TGI [19]: 30.4 µM; TGI [20]: 33 µM; TGI [21]: 32 µM; TGI [22]: 39 µM; TGI [23]: 33.5 µM; TGI [24]: 42.4 µM; TGI [58]: 25.8 µM; TGI [25]: 32.1 µM; TGI [26]: 29.3 µM; TGI [27]: 29.2 µM; TGI [28]: 29.1 µM; TGI [29]: 25.4 µM; TGI [30]: 29.5 µM; TGI [31]: 30.2 µM; TGI [32]: 33.4 µM; TGI [33]: 28.8 µM; TGI [34]: 27.9 µM; TGI [35]: 33.5 µM; TGI [36]: 44.7 µM; TGI [37]: 30.8 µM; TGI [38]: 33.9 µM; TGI [39]: 34.3 µM; TGI [40]: 29.2 µM; TGI [41]: 38.2 µM; TGI [42]: 31.3 µM; TGI [43]: > 100 µM; TGI [44]: 29.2 µM; TGI [45]: 30.1 µM; TGI [46]: 36.8 µM; TGI [47]: 33.7 µM; TGI [48]: 29.4 µM; TGI [49]: 27.4 µM; TGI [50]: 33.2 µM; TGI [51]: 30.8 µM; TGI [52]: 29.1 µM; TGI [53]: 38.5 µM; TGI [54]: 32 µM; TGI [55]: 32.2 µM; TGI [56]: 30.6 µM
